Measurements as given in patent US10583137B2, “Triazole DAGLα inhibitors” (THE SCRIPPS RESEARCH INSTITUTE, priority 2015, dated 2020).
Read-outs that look alike come from different tables or passages of the source.

Experiments:
[1] = molecular target: DAGLα (hDAGLα-FLAG) (Homo sapiens (Human), UniProt Q9Y4D2); test: competitive ABPP, membrane proteome of transfected HEK293T cells; format: biochemical; conditions: for inhibition at 0.0032 µM: 3.2 nM, read-out: DAGLα % inh. 3.2 nM
Method: (§1) Compounds 19 and 20 were tested for in vitro inhibition of DAGLα and DAGLβ as measured by competitive activity-based protein profiling (ABPP) of […] using a HT-01 probe (targets DAGLα and DAGLβ) and a FP-Rh probe (targets serine hydrolases).
(§2) Briefly, membrane proteome (1 mg/ml, 20 μL) was prepared from HEK293T cells (transiently transfected with hDAGLα-FLAG or hDAGLα-S472A-FLAG, hDAGLβ-FLAG or hDAGLβ-S443A-FLAG) as described in Example 16. The proteome was incubated at room temperature with vehicle (DMSO) or compound in 0.5 μL DMSO for 30 min. The membrane proteome sample was subsequently treated for 30 min with HT-01 probe (1 μM) or FP-Rh probe (1 μM). The reactions were quenched with 10 μL 3× Laemmli sample buffer (final concentrations: 60 mM Tris-Cl pH 6.8, 2% (w/v) SDS, 10% (v/v) glycerol, 5% (v/v) (3-mercaptoethanol, 0.01% (v/v) bromophenol blue). The samples were directly loaded and resolved on SDS page gel (10% acrylamide). The gels were scanned using a ChemiDoc MP system (Cy3 settings, 605/50 filter).
(§3) The resolved proteins were transferred from the gels to a polyvinyldifluoride membrane for Western Blotting using a Trans-Blot® Turbo (BioRad). FLAG-tagged enzymes were stained using rabbit anti-FLAG as primary antibody, and goat-anti-rabbit HRP as secondary antibody. The blot was developed in the dark using a 10 mL luminal solution, 100 μL ECL enhancer and 3 μL H2O2. Chemiluminescence was visualized using a ChemiDoc XRS (BioRad).
(§4) The percentage of DAGL activity remaining in the assayed samples was determined by measuring the integrated optical intensity of the fluorescent protein bands of the Western Blot using image lab 4.1. The relative intensity was compared to the vehicle (DMSO) treated proteins, which were set to 100%. IC50 values were determined by plotting a log(inhibitor) vs. normalized response (Variable slope) dose-response curve generated using Prism software (GraphPad).

[2] = molecular target: DAGLβ (hDAGLβ-FLAG) (Homo sapiens (Human), UniProt Q8NCG7); test: as above; format: biochemical; conditions: for inhibition at 0.0032 µM: read-out: DAGLβ % inh. 3.2 nM
Method: as §1, §2, §3, §4

Chain of DAGLα (hDAGLα-FLAG) (Q9Y4D2 whole entry): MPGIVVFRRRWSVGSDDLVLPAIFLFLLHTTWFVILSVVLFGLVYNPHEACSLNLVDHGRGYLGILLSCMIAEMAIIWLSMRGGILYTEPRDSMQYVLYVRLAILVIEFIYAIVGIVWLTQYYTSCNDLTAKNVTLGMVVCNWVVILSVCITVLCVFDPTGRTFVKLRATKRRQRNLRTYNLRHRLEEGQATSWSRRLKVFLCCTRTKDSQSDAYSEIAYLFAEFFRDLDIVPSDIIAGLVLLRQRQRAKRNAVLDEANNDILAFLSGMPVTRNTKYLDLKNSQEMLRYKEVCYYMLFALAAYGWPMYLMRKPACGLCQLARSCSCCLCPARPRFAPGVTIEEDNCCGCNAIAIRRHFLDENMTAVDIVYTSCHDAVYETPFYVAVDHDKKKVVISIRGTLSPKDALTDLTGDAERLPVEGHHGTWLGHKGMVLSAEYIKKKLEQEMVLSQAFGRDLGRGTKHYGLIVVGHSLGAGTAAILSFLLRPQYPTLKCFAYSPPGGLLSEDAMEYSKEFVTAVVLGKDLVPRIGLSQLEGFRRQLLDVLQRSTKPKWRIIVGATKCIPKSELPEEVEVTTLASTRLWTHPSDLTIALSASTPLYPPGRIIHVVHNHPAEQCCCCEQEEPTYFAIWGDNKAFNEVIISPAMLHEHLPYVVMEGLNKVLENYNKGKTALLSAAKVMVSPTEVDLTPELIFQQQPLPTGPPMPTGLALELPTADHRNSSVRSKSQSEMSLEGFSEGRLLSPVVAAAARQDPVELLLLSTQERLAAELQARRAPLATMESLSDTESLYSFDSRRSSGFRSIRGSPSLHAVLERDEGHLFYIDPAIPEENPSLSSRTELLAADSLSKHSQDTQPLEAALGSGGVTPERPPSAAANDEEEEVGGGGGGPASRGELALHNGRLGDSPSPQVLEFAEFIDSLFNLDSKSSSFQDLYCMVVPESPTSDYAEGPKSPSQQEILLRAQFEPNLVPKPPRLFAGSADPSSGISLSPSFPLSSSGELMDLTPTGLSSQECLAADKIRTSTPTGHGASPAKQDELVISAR
Chain of DAGLβ (hDAGLβ-FLAG) (Q8NCG7 whole entry): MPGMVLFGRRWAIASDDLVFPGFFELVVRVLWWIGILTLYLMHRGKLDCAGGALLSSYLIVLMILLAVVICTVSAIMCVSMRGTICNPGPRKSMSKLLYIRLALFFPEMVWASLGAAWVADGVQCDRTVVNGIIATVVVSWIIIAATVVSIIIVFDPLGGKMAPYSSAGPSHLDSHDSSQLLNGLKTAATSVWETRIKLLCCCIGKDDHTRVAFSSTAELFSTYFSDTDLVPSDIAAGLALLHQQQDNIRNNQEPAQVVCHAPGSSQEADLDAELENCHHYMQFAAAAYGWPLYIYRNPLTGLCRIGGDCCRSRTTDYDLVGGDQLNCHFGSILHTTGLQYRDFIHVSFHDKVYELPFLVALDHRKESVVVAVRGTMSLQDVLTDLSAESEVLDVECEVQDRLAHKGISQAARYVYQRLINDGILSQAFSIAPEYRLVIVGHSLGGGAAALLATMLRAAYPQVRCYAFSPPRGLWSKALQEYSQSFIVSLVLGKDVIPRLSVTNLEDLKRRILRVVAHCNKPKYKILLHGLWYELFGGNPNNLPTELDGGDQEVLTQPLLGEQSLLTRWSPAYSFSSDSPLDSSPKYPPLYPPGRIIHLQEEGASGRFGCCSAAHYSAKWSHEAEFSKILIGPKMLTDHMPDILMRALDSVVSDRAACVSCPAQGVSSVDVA

IC50 ([1]; read-out: DAGLα IC50) [nM]	IC50 ([2]; read-out: DAGLβ IC50) [nM]	inhibition at 0.0032 µM [1] [%]	inhibition at 0.0032 µM [2] [%]	Structure (SMILES)	further results
–	–	0 to 25	0 to 25	O=C(N1C[C@H](O)C=C[C@@H]1Cc1ccccc1)n1cc(-c2ccc(OC(F)(F)F)cc2)nn1 [Compound 112, ((3R,6S)-6-benzyl-3-hydroxy-3,6-dihydropyridin-1(2H)-yl)(4-(4-(trifluoromethoxy)phenyl)-1H-1,2,3-triazol-1-yl)methanone]	–
≤ 400	≤ 400	–	–	O=C(N(CCc1ccccc1)CC1CC1)n1cc(-c2ccc(OC(F)(F)F)cc2)nn1 [Compound 130, N-(cyclopropylmethyl)-N-phenethyl-4-(4-(trifluoromethoxy)phenyl)-1H-1,2,3-triazole-1-carboxamide]	–
–	–	0 to 25	0 to 25	O=C(N1CCC=C[C@H]1COCc1ccccc1)n1cc(-c2ccc(OC(F)(F)F)cc2)nn1 [Compound 108, (S)-(6-((benzyloxy)methyl)-3,6-dihydropyridin-1(2H)-yl)(4-(4-(trifluoromethoxy)phenyl)-1H-1,2,3-triazol-1-yl)methanone]	–
–	–	25 to 50	0 to 25	O=C(N1C[C@@H](OCC2CC2)CC[C@@H]1Cc1ccccc1)n1cc(-c2ccc(OC(F)(F)F)cc2)nn1 [Compound 44, ((2R,5S)-2-benzyl-5-(cyclopropylmethoxy)piperidin-1-yl)(4-(4-(trifluoromethoxy)phenyl)-1H-1,2,3-triazol-1-yl)methanone]	–
–	–	0 to 25	0 to 25	O=C(N1C[C@H](OCC2CC2)CC[C@@H]1Cc1ccccc1)n1ncc(-c2ccc(OC(F)(F)F)cc2)n1 [Compound 121]	–
–	–	0 to 25	0 to 25	O=C(N1CCCC[C@@H]1Cc1ccccc1)n1ncc(-c2ccc(OC(F)(F)F)cc2)n1 [Compound 104, (R)-(2-benzylpiperidin-1-yl)(4-(4-(trifluoromethoxy)phenyl)-2H-1,2,3-triazol-2-yl)methanone]	–
–	–	0 to 25	0 to 25	CO[C@H]1CC[C@H](Cc2ccccc2)N(C(=O)n2ncc(-c3ccc(OC(F)(F)F)cc3)n2)C1 [Compound 119]	–

Second part, the compound before the results:

Structure (SMILES)	IC50 ([1]; read-out: DAGLα IC50) [nM]	IC50 ([2]; read-out: DAGLβ IC50) [nM]	inhibition at 0.0032 µM [1] [%]	inhibition at 0.0032 µM [2] [%]	further results
COc1cncc(OC)c1-c1ccc(-c2cn(C(=O)N3CCCCC3Cc3ccccc3)nn2)cc1 (stereo not drawn) [Compound 19, (2-Benzylpiperidin-1-yl)(4-(4-(3,5-dimethoxypyridin-4-yl)phenyl)-1H-1,2,3-triazol-1-yl)methanone]	≤ 400	≤ 400	–	–	IC50 ([1]; ABPP method, n=3, read-out: IC50, DAGLα): 9.5 nM; IC50 ([2]; ABPP method, n=3, read-out: IC50, DAGLβ): 106 nM
CN(C)C(=O)c1ccc(-c2ccc(-c3cn(C(=O)N4CCCCC4Cc4ccccc4)nn3)cc2)cc1 (stereo not drawn) [Compound 75, 4′-(1-(2-benzylpiperidine-1-carbonyl)-1H-1,2,3-triazol-4-yl)-N,N-dimethyl-[1,1′-biphenyl]-4-carboxamide]	2000 to 10000	> 10000	–	–	–
CC(C)(C)CN(CCc1ccncc1)C(=O)n1cc(-c2ccc(OC(F)(F)F)cc2)nn1 [Compound 132, N-neopentyl-N-(2-(pyridin-4-yl)ethyl)-4-(4-(trifluoromethoxy)phenyl)-1H-1,2,3-triazole-1-carboxamide]	≤ 400	≤ 400	–	–	–
COc1cc(OC)c(-c2cnn(C(=O)N3CCCCC3Cc3ccccc3)n2)c(OC)c1 (stereo not drawn) [Compound 85, (2-benzylpiperidin-1-yl)(4-(2,4,6-trimethoxyphenyl)-1H-1,2,3-triazol-2-yl)methanone]	> 10000	2000 to 10000	–	–	–
O=C(N1C[C@H](O)C=C[C@@H]1Cc1ccccc1)n1ncc(-c2ccc(OC(F)(F)F)cc2)n1 [Compound 113, ((3R,6S)-6-benzyl-3-hydroxy-3,6-dihydropyridin-1(2H)-yl)(4-(4-(trifluoromethoxy)phenyl)-2H-1,2,3-triazol-2-yl)methanone]	–	–	0 to 25	0 to 25	–
O=C(N1CCCCC1Cc1ccccc1)n1cc(-c2ccc(-c3c(Cl)cncc3Cl)cc2)nn1 (stereo not drawn) [Compound 73, (2-benzylpiperidin-1-yl)(4-(4-(3,5-dichloropyridin-4-yl)phenyl)-1H-1,2,3-triazol-1-yl)methanone]	≤ 400	≤ 400	–	–	–
O=C(N1CCCCC1Cc1ccccc1)n1cc(-c2ccc(-c3ccncc3)cc2)nn1 (stereo not drawn) [Compound 59, (2-benzylpiperidin-1-yl)(4-(4-(pyridin-4-yl)phenyl)-1H-1,2,3-triazol-1-yl)methanone]	400 to 2000	2000 to 10000	–	–	–
O=C(N1CCCCC1Cc1ccccc1)n1cc(-c2ccc([N+](=O)[O-])cc2)nn1 (stereo not drawn) [Compound 89, (2-benzylpiperidin-1-yl)(4-(4-nitrophenyl)-1H-1,2,3-triazol-1-yl)methanone]	≤ 400	≤ 400	–	–	–
CC(C)(C)CN(CCc1ccncc1)C(=O)n1ncc(-c2ccc(OC(F)(F)F)cc2)n1 [Compound 133, N-neopentyl-N-(2-(pyridin-4-yl)ethyl)-4-(4-(trifluoromethoxy)phenyl)-2H-1,2,3-triazole-1-carboxamide]	2000 to 10000	400 to 2000	–	–	–
O=C(N1C[C@@H](O)C=C[C@@H]1Cc1ccccc1)n1ncc(-c2ccc(OC(F)(F)F)cc2)n1 [Compound 115, ((3S,6S)-6-benzyl-3-hydroxy-3,6-dihydropyridin-1(2H)-yl)(4-(4-(trifluoromethoxy)phenyl)-2H-1,2,3-triazol-1-yl)methanone]	–	–	0 to 25	0 to 25	–
COc1cc(Cl)cc(OC)c1-c1ccc(-c2cn(C(=O)N3CCCCC3Cc3ccncc3)nn2)cc1 (stereo not drawn) [Compound 69, (4-(4′-chloro-2′,6′-dimethoxy-[1,1′-biphenyl]-4-yl)-1H-1,2,3-triazol-1-yl)(2-(pyridin-4-ylmethyl)piperidin-1-yl)methanone]	≤ 400	2000 to 10000	–	–	–
CN(C)Cc1ccc(-c2cn(C(=O)N3CCCCC3Cc3ccccc3)nn2)cc1 (stereo not drawn) [Compound 92, (2-benzylpiperidin-1-yl)(4-(4-((dimethylamino)methyl)phenyl)-1H-1,2,3-triazol-1-yl)methanone]	2000 to 10000	2000 to 10000	–	–	–
COc1cc(OC)c(-c2ccc(-c3cn(C(=O)N4CCCCC4Cc4ccccc4)nn3)cn2)c(OC)c1 (stereo not drawn) [Compound 74, (2-benzylpiperidin-1-yl)(4-(6-(2,4,6-trimethoxyphenyl)pyridin-3-yl)-1H-1,2,3-triazol-1-yl)methanone]	≤ 400	2000 to 10000	–	–	–
O=C(N1CCCCC1Cc1ccccc1)n1cc(-c2ccc(CN3CCCC3)cc2)nn1 (stereo not drawn) [Compound 93, (2-benzylpiperidin-1-yl)(4-(4-(pyrrolidin-1-ylmethyl)phenyl)-1H-1,2,3-triazol-1-yl)methanone]	2000 to 10000	> 10000	–	–	–
O=C(N1CCCCC1Cc1ccccc1)n1cc(-c2ccc(-c3ccccn3)cc2)nn1 (stereo not drawn) [Compound 61, (2-benzylpiperidin-1-yl)(4-(4-(pyridin-2-yl)phenyl)-1H-1,2,3-triazol-1-yl)methanone]	400 to 2000	2000 to 10000	–	–	–
CC(C)C(=O)N1CCN(C(=O)n2cc(-c3ccc(OC(F)(F)F)cc3)nn2)C(Cc2ccccc2)C1 (stereo not drawn) [Compound 30, 1-(3-benzyl-4-(4-(4-(trifluoromethoxy)phenyl)-1H-1,2,3-triazole-1-carbonyl)piperazin-1-yl)-2-methylpropan-1-one]	–	–	–	–	DAGLα % inh. 0.8 μM ([1]; 0.8 μM (stated under the cell)): *** (% inhibition greater than or equal to 50% and less than 75%); DAGLβ % inh. 0.8 μM ([2]; 0.8 μM (stated under the cell)): * (% inhibition greater than or equal to 0% and less than 25%)
